According to US12441739B2, “Glucagon receptor antagonist and use thereof” (LANZHOU UNIVERSITY, priority 2021, dated 2025):
“And” between values parts separate entries of the source, which are not always exact repeats. Equal entries are not always repeated. Where two headings read alike, the source gives them in different places.

Target: T1, human glucagon receptor (hGCGR) (Homo sapiens, UniProt P47871)
T1 construct: host or cells: HEK293
Assay: HTRF second messenger cAMP response experiment (called cell viability test) in HEK293 cells with glucagon peptide segment
Type: cell-based
Settings: for inhibitory activity of glucagon receptor (in words, from cAMP response curves): FIG. 5 / FIG. 14
Protocol: In order to determine the antagonistic activity of the compound A on the glucagon receptor in the above embodiments, a cell viability test is carried out. The specific implementation is as follows.
A known human glucagon receptor (hGCGR) antagonist drug is selected as a positive control, and the compound A in the above embodiments, a glucagon peptide segment (that is, human full-length glucagon), and human embryonic kidney cells containing target receptor molecules are mixed. The glucagon peptide segment binds to hGCGR to activate the hGCGR signaling pathway and release the second messenger cAMP. The compound A acts as an antagonist to inhibit the activity of hGCGR.
In an exemplary embodiment, a known hGCGR antagonist drug (L-168,049) is selected as a positive control. […] In addition, in view of the human glucagon receptor on the cell membrane of human embryonic kidney cells HEK293, HEK293 is used to test the drug activity of the human glucagon antagonist. In this embodiment, different concentrations of compound A of the present disclosure and the positive control are respectively mixed with glucagon peptide segments and HEK293 cells, the second messenger cAMP is detected through homogeneous time resolved fluorescence (HTRF), and a half maximal inhibitory concentration value of each compound is calculated according to the intensity value of HTRF.
(§1) In an exemplary embodiment, the activity of the compound A is tested using the HTRF technique. Specifically, after activation of the glucagon receptor by the glucagon peptide segment, the second messenger cAMP is released from the glucagon receptor cells, the second messenger cAMP may be detected by HTRF, and the half maximal inhibitory concentration (IC50) of the tested compound may be calculated according to the fluorescence intensity.
In an exemplary embodiment, 11 identical concentration gradients are set for the compounds A1 and A2 respectively. The activities of the compounds A1 and A2 are determined by the HTRF second messenger cAMP response experiment in triplicate.
Step S910. Select an antagonist drug of hGCGR as a positive control, and mix each target drug small molecule, a glucagon peptide segment, and human embryonic kidney cells containing the target receptor molecule. The glucagon peptide segment binds to hGCGR to activate the hGCGR signaling pathway and release the second messenger cAMP. The target drug molecule acts as an antagonist to inhibit the activity of hGCGR.
In an exemplary embodiment, an antagonist drug (such as L-168,049) of hGCGR is selected as a positive control. In addition, in view of the human glucagon receptor on the cell membrane of human embryonic kidney cells (such as HEK293), HEK293 may be used to test the drug activity of the human glucagon antagonist. The target drug small molecule, the glucagon peptide segment, and the HEK293 cells containing the target receptor molecule are mixed. The glucagon peptide segment is used to bind to hGCGR to activate the hGCGR signaling pathway and promote the release of the second messenger cAMP. The target drug molecule acts as an antagonist to inhibit the activity of hGCGR.
Step S920. Detect the second messenger cAMP through HTRF, and determine a half maximal inhibitory concentration value of each target drug small molecule according to an intensity value of HTRF.
as §1, with “each target drug small molecule (such as 30 target drug small molecules shown in Table 2)” for “the compound A”, “tested by” for “tested”, “drug molecule” for “tested compound”, “intensity. […]” for “intensity.”

[1] = concentration gradient LogM −5, HEK293 cells, glucagon peptide segment, HTRF cAMP, triplicate columns
[2] = concentration gradient LogM −5.477121, HEK293 cells, glucagon peptide segment, HTRF cAMP, triplicate columns
[3] = concentration gradient LogM −5.954243, HEK293 cells, glucagon peptide segment, HTRF cAMP, triplicate columns
[4] = concentration gradient LogM −6.431364, HEK293 cells, glucagon peptide segment, HTRF cAMP, triplicate columns
[5] = concentration gradient LogM −7.385606, HEK293 cells, glucagon peptide segment, HTRF cAMP, triplicate columns
[6] = concentration gradient LogM −6.908485, HEK293 cells, glucagon peptide segment, HTRF cAMP, triplicate columns
[7] = concentration gradient LogM −7.862728, HEK293 cells, glucagon peptide segment, HTRF cAMP, triplicate columns
[8] = concentration gradient LogM −8.339849, HEK293 cells, glucagon peptide segment, HTRF cAMP, triplicate columns
[9] = concentration gradient LogM −9.294091, HEK293 cells, glucagon peptide segment, HTRF cAMP, triplicate columns

T1 sequence (P47871 26-477): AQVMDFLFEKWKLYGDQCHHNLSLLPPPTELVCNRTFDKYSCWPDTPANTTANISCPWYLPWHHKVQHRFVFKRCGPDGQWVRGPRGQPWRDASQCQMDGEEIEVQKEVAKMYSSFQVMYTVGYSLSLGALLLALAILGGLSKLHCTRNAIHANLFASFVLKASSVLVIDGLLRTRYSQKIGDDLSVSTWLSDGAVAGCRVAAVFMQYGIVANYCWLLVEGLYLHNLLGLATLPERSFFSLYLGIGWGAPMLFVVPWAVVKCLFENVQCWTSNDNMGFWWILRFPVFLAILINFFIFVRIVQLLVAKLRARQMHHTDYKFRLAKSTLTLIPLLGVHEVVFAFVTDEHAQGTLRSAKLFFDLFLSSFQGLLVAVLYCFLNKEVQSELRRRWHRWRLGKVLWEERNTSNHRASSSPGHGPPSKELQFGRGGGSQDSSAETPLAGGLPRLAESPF

Q: With `O=C(COC(=O)CCNC(=O)c1ccsc1)NC(=O)NCc1cccs1` [Compound C20] as the molecule, how does the IC50 read?
A: > 10 µM

Q: Which results are given for `CSc1cccc(NC(=O)c2c(O)c3sccc3[nH]c2=O)c1` [Compound C14]?
A: IC50: 0.422 µM; inhibitory activity of glucagon receptor (in words, from cAMP response curves): have the activity; inhibitory activity of glucagon receptor (in words, from cAMP response curves) (listed as A2): good inhibitory activity of glucagon receptor; Inhibition percentage [1]: 103.2945% and 102.1097% and 103.2736%; Inhibition percentage (concentration gradient LogM −5, triplicate, HEK293, cAMP HTRF, listed as A2): 103.2945 percentage and 102.1097 percentage and 103.2736 percentage; Inhibition percentage [2]: 106.1285% and 105.9119% and 107.3553%; Inhibition percentage (concentration gradient LogM −5.477121, triplicate, HEK293, cAMP HTRF, listed as A2): 106.1285 percentage and 105.9119 percentage and 107.3553 percentage; Inhibition percentage [3]: 84.32% and 92.48% and 91.05%; Inhibition percentage (concentration gradient LogM −5.954243, triplicate, HEK293, cAMP HTRF, listed as A2): 84.32 percentage and 92.48 percentage and 91.05 percentage; Inhibition percentage [4]: 40.16% and 62.74% and 47.65%; Inhibition percentage (concentration gradient LogM −6.431364, triplicate, HEK293, cAMP HTRF, listed as A2): 40.16 percentage and 62.74 percentage and 47.65 percentage

Q: What does the source list for `O=C(CNC(=O)NCCCN1CCCCCC1=O)Nc1ccc(F)c(F)c1` [Compound C22]?
A: IC50: > 10 µM; Inhibition percentage [5]: −5.735% and 1.578% and −3.875%

Q: `CN1C(=O)Cc2cc(S(=O)(=O)CCC(=O)NCCc3ccccc3)ccc21` [Compound C10] was tested. Which IC50 did it give?
A: > 10 µM

Q: And the Inhibition percentage [3]?
A: 1.692% and 1.059% and 6.715%

Q: What about the Inhibition percentage [6] of the same molecule?
A: −33.073% and −31.3707% and −29.8413%

Q: With `CC(C)(C)NC(=O)NC(=O)CSc1nc(-c2cccs2)c(-c2cccs2)[nH]1` [Compound C25] as the molecule, how does the IC50 read?
A: > 10 µM

Q: How did the IC50 turn out when `Cn1c(CNC(=O)c2cccs2)nnc1SCC(=O)Nc1ccc(Cl)cc1` [Compound C29] was run?
A: > 10 µM

Q: Which results are given for `COc1ccc(NC(=O)c2c(O)c3c4c(sc3[nH]c2=O)C[C@@H](C)CC4)cc1Cl` [Compound C13, (7S)—N-(3-chloro-4-methoxyphenyl)-4-hydroxy-7-methyl-2-oxo-5,6,7,8-tetrahydro-1H-[1]benzothiolo[2,3-b]pyridine-3-carboxamide]?
A: IC50: 0.446 µM; inhibitory activity of glucagon receptor (in words, from cAMP response curves): have the activity; inhibitory activity of glucagon receptor (in words, from cAMP response curves) (listed as A1): good inhibitory activity of glucagon receptor; Inhibition percentage [1]: 98.37% and 95.2799% and 96.15%; Inhibition percentage (concentration gradient LogM −5, triplicate, HEK293, cAMP HTRF, listed as A1): 98.37 percentage and 95.2799 percentage and 96.15 percentage; Inhibition percentage [2]: 87.84% and 83.28% and 83.51%; Inhibition percentage (concentration gradient LogM −5.477121, triplicate, HEK293, cAMP HTRF, listed as A1): 87.84 percentage and 83.28 percentage and 83.51 percentage; Inhibition percentage [3]: 75.44% and 83.24% and 79.3%; Inhibition percentage (concentration gradient LogM −5.954243, triplicate, HEK293, cAMP HTRF, listed as A1): 75.44 percentage and 83.24 percentage and 79.3 percentage; Inhibition percentage [7]: 7.62% and −2.135% and −0.781%

Q: With `O=C(CCNC(=O)c1ccccc1)NCc1cccc(NC(=O)C2CC2)c1` [Compound C16] as the molecule, how does the IC50 read?
A: > 10 µM

Q: And the Inhibition percentage [6]?
A: −5.221% and −7.477% and −6.358%

Q: And the Inhibition percentage (concentration gradient LogM −8.81697, HEK293 cells, glucagon peptide segment, HTRF cAMP, triplicate columns)?
A: −7.7562% and −6.836% and −15.6271%

Q: `COc1cc(/C=N/NC(=O)CN2C(=O)N[C@H]3NC(=O)N[C@@H]32)cc(OC)c1O` [Compound C12] was tested. Which IC50 did it give?
A: > 10 µM

Q: Which IC50 does the source give for `CCC(=O)NC(=S)Nc1ccc(NC(=S)NC(=O)c2ccccc2OC)cc1` [Compound C8] here?
A: > 10 µM

Q: How did the IC50 turn out when `COc1ccc2cc(C(=O)NCCNc3ccc(C)nn3)[nH]c2c1` [Compound C15] was run?
A: > 10 µM

Q: What about the Inhibition percentage [1] of the same molecule?
A: 2.451% and 0.02571% and 3.529%

Q: What about the Inhibition percentage [6] of the same molecule?
A: −19.189% and −13.1875% and −18.6652%

Q: What about the Inhibition percentage [7] of the same molecule?
A: 3.911% and 12.71% and 11.16%

Q: Which IC50 (HEK293, cAMP HTRF, 11 concentrations, L-168,049 positive control per group of ten compounds) does the source give for `CCCOc1ccc(Br)cc1-c1cc(-c2ccc(Cl)cc2)[nH]c1-c1ccncc1` [L-168,049, 4-[3-(5-bromo-2-propoxyphenyl)-5-(4-chlorophenyl)-1H-pyrrol-2-yl]pyridine, reference compound] here?
A: 0.0615 µM and 0.0422 µM

Q: And the Inhibition percentage [1]?
A: 100.4281% and 100.5604% and 100.8895%

Q: What about the Inhibition percentage (concentration gradient LogM −5, triplicate, HEK293, cAMP HTRF) of the same molecule?
A: 100.4281 percentage

Q: What about the Inhibition percentage [2] of the same molecule?
A: 98.6132% and 96.62% and 98.1315%

Q: What about the Inhibition percentage (concentration gradient LogM −5.477121, triplicate, HEK293, cAMP HTRF) of the same molecule?
A: 98.6132 percentage

Q: What about the Inhibition percentage [3] of the same molecule?
A: 98.05% and 95.17% and 94.46%

Q: What about the Inhibition percentage (concentration gradient LogM −5.954243, triplicate, HEK293, cAMP HTRF) of the same molecule?
A: 98.05 percentage

Q: And the Inhibition percentage [4]?
A: 93.05% and 91.9% and 88.0059%

Q: And the Inhibition percentage (concentration gradient LogM −6.431364, triplicate, HEK293, cAMP HTRF)?
A: 93.05 percentage

Q: And the Inhibition percentage [6]?
A: 89.46% and 74.79% and 78.16%

Q: What about the Inhibition percentage (concentration gradient LogM −6.908485, triplicate, HEK293, cAMP HTRF) of the same molecule?
A: 89.46 percentage

Q: And the Inhibition percentage [5]?
A: 46.69% and 16.31%

Q: And the Inhibition percentage (concentration gradient LogM −7.385606, triplicate, HEK293, cAMP HTRF)?
A: 47.8261 percentage

Q: What about the Inhibition percentage [7] of the same molecule?
A: 33.52% and 15.3532%

Q: And the Inhibition percentage (concentration gradient LogM −7.862728, triplicate, HEK293, cAMP HTRF)?
A: 28.98 percentage

Q: And the Inhibition percentage [8]?
A: −19.5336% and −9.209%

Q: And the Inhibition percentage (concentration gradient LogM −8.339849, triplicate, HEK293, cAMP HTRF)?
A: 3.941 percentage

Q: And the Inhibition percentage (concentration gradient LogM −8.81697, triplicate, HEK293, cAMP HTRF)?
A: −8.051 percentage

Q: What about the Inhibition percentage [9] of the same molecule?
A: 19.0859% and −1.84%

Q: And the Inhibition percentage (concentration gradient LogM −9.294091, triplicate, HEK293, cAMP HTRF)?
A: −3.763 percentage

Q: And the Inhibition percentage (concentration gradient LogM −9.771213, HEK293 cells, glucagon peptide segment, HTRF cAMP, triplicate columns)?
A: −1.911% and 6.132% and 1.646%

Q: What about the Inhibition percentage (concentration gradient LogM −9.771213, triplicate, HEK293, cAMP HTRF) of the same molecule?
A: −1.911 percentage

Q: For `O=C(NNC(=S)Nc1ccccc1)[C@H](O)[C@@H](O)C(=O)NNC(=S)Nc1ccccc1` [Compound C7], which IC50 is on record?
A: > 10 µM

Q: What about the Inhibition percentage [7] of the same molecule?
A: −25.3779% and −25.5195% and −24.1306%

Q: What about the Inhibition percentage [9] of the same molecule?
A: −8.847% and −15.2446% and −18.5536%

Q: How did the IC50 turn out when `O=S(=O)(NCCc1ccccc1)c1ccc(NC(=S)Nc2ccccc2)cc1` [Compound C2] was run?
A: > 10 µM

Q: And the Inhibition percentage [9]?
A: 1.325% and 0.8006% and 5.407%

Q: For `O=S(=O)(Nc1ccc(Cl)cc1)c1ccc(NC(=S)Nc2ccccc2)cc1` [Compound C4], which IC50 is on record?
A: > 10 µM

Q: Which IC50 does the source give for `CNC(=O)NC(=O)CSc1nc2cc(-c3ccc(F)cc3)sc2c(=O)n1N` [Compound C30] here?
A: > 10 µM

Q: Which results are given for `CC(=O)c1ccccc1NC(=O)c1c(O)c2c3c(sc2[nH]c1=O)C[C@H](C)CC3` [Compound C11]?
A: IC50: > 10 µM; Inhibition percentage [1]: 21.46% and 27.01% and 27.99%; Inhibition percentage [8]: 11.37% and 16.25% and 12.52%

Q: Which IC50 does the source give for `CSc1cccc(NC(=O)CCNS(=O)(=O)c2ccc(NC(C)=O)cc2)c1` [Compound C17] here?
A: > 10 µM
